How the values were obtained:
Assay in all cases: biochemical
Parameters in all cases: KinomeScan competition binding panel (DiscoveRx), percent of control at 1 uM
Details in all cases: read-out: Percent Control
[1] = target: T1, ABL1(Q252H)-phosphorylated (Homo sapiens, UniProt P00519, Q252H)
T1 construct: phosphorylated
Outline: (§1)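 Selectivity profiled across 456 kinases/mutants by KinomeScan binding technology.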

[2] = target: CAMK1D (Homo sapiens, UniProt Q8IU85)
Outline: as §1

[3] = target: CDK7 (Homo sapiens, UniProt P50613)
Outline: as §1

[4] = target: T2, CTK (Homo sapiens, UniProt P42679)
T2 construct: gene MATK
Outline: as §1

[5] = target: T3, DRAK1 (Homo sapiens, UniProt Q9UEE5)
T3 construct: gene STK17A
Outline: as §1

[6] = target: DYRK1B (Homo sapiens, UniProt Q9Y463)
Outline: as §1

[7] = target: EGFR(G719C) (Homo sapiens, UniProt P00533, G719C)
Outline: as §1

[8] = target: EGFR(T790M) (Homo sapiens, UniProt P00533, T790M)
Outline: as §1

[9] = target: T4, ERK2 (Homo sapiens, UniProt P28482)
T4 construct: gene MAPK1
Outline: as §1

[10] = target: T5, ERK3 (Homo sapiens, UniProt Q16659)
T5 construct: gene MAPK6
Outline: as §1

[11] = target: FGFR2 (Homo sapiens, UniProt P21802)
Outline: as §1

[12] = target: FRK (Homo sapiens, UniProt P42685)
Outline: as §1

[13] = target: T6, IKK-epsilon (Homo sapiens, UniProt Q14164)
T6 construct: gene IKBKE
Outline: as §1

[14] = target: KIT(V559D) (Homo sapiens, UniProt P10721, V559D)
Outline: as §1

[15] = target: T7, LKB1 (Homo sapiens, UniProt Q15831)
T7 construct: gene STK11
Outline: as §1

[16] = target: T8, MEK4 (Homo sapiens, UniProt P45985)
T8 construct: gene MAP2K4
Outline: as §1

[17] = target: T9, MKK7 (Homo sapiens, UniProt O14733)
T9 construct: gene MAP2K7
Outline: as §1

[18] = target: MTOR (Homo sapiens, UniProt P42345)
Outline: as §1

[19] = target: MYLK (Homo sapiens, UniProt Q15746)
Outline: as §1

[20] = target: NEK10 (Homo sapiens, UniProt Q6ZWH5)
Outline: as §1

[21] = target: PAK6 (Homo sapiens, UniProt Q9NQU5)
Outline: as §1

[22] = target: PHKG1 (Homo sapiens, UniProt Q16816)
Outline: as §1

[23] = target: PIK3C2B (Homo sapiens, UniProt O00750)
Outline: as §1

[24] = target: PIK3CD (Homo sapiens, UniProt O00329)
Outline: as §1

[25] = target: T10, RSK4(Kin.Dom.1-N-terminal) (Homo sapiens, UniProt Q9UK32)
T10 construct: gene RPS6KA6; Kin.Dom.1-N-terminal
Outline: as §1

CAMK1D, sequence (Q8IU85 whole entry): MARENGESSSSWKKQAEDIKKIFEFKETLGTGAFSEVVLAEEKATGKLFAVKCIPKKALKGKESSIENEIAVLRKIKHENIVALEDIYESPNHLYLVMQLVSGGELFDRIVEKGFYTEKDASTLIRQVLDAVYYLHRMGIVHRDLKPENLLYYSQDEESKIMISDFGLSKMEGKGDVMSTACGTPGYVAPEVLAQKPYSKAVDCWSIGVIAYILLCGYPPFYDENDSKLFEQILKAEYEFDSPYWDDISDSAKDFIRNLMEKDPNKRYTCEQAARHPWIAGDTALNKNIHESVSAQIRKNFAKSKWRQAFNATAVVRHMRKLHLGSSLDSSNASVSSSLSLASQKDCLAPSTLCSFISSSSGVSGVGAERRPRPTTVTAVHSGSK
T3 sequence (Q9UEE5 whole entry): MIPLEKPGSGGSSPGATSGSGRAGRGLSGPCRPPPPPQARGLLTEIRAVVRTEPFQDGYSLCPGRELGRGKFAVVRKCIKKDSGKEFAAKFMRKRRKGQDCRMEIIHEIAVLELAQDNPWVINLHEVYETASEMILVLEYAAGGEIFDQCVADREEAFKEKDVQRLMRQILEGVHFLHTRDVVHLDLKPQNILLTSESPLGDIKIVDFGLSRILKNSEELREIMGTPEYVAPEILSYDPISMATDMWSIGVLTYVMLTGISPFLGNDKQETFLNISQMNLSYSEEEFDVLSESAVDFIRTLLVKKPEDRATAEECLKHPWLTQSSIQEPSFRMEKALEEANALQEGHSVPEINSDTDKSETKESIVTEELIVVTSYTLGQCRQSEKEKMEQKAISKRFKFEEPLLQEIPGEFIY
T8 sequence (P45985 whole entry): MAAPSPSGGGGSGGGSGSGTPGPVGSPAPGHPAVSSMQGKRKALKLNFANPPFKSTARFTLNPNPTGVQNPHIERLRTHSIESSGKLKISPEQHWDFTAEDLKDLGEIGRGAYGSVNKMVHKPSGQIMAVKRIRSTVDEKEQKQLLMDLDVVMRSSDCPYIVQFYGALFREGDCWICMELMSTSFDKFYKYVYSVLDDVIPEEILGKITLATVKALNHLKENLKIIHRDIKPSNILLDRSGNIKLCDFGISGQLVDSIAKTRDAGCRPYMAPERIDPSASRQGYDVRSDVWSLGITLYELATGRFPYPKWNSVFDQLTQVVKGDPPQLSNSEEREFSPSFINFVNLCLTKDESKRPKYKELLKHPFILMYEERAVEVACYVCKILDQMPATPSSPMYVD
PIK3CD, sequence (O00329 whole entry): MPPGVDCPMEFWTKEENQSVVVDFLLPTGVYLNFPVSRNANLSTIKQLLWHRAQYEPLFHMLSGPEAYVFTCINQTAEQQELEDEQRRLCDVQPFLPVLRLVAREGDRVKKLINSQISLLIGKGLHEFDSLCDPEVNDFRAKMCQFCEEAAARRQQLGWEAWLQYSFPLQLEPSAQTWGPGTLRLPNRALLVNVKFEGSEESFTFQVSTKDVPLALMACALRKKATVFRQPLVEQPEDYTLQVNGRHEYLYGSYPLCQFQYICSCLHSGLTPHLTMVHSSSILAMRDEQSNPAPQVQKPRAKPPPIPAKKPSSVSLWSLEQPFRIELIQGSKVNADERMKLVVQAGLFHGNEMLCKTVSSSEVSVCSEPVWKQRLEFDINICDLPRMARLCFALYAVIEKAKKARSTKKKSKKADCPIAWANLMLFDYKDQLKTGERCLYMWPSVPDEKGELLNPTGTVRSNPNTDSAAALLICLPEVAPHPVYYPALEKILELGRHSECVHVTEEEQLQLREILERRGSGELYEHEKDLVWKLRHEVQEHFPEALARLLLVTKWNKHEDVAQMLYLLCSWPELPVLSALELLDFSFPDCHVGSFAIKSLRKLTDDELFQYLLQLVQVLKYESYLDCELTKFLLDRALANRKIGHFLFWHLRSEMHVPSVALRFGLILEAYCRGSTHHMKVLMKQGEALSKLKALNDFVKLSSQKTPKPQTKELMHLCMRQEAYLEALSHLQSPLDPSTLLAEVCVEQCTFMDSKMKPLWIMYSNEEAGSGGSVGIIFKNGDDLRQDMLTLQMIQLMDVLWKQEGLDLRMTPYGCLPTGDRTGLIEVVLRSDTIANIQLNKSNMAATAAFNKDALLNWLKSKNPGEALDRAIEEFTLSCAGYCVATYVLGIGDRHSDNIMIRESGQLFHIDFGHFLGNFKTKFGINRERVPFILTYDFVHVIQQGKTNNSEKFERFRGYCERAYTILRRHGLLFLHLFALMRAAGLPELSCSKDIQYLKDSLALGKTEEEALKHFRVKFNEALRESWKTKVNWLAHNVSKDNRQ
EGFR(G719C), sequence (P00533 whole entry G719C): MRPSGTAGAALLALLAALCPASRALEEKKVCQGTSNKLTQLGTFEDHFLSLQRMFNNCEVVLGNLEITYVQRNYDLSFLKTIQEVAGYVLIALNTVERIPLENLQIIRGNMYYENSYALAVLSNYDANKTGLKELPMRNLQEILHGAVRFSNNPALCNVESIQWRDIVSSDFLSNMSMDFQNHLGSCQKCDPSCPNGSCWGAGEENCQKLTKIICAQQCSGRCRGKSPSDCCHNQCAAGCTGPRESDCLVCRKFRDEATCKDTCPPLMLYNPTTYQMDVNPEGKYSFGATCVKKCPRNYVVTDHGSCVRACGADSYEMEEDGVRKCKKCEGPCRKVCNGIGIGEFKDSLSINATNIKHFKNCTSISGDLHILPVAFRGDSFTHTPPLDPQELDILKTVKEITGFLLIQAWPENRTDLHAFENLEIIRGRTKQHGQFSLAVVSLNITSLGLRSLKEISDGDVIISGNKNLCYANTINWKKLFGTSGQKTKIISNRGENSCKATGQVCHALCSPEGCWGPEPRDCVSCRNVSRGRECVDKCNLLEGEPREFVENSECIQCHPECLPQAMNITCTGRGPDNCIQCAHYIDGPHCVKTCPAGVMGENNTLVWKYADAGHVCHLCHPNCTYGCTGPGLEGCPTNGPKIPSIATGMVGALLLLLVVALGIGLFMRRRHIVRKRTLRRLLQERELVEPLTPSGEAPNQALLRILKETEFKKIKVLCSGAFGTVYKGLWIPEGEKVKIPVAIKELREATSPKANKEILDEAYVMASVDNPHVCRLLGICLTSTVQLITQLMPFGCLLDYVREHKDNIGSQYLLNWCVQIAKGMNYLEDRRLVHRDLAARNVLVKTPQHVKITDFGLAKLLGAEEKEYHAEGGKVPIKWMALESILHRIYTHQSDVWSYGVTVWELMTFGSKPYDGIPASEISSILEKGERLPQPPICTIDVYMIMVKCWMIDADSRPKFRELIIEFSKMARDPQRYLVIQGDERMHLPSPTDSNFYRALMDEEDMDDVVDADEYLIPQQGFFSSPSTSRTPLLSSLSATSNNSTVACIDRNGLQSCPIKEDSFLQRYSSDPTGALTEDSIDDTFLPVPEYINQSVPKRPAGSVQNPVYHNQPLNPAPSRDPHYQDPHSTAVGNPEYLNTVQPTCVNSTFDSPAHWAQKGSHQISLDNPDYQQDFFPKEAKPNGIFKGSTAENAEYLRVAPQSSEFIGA
T2 sequence (P42679 whole entry): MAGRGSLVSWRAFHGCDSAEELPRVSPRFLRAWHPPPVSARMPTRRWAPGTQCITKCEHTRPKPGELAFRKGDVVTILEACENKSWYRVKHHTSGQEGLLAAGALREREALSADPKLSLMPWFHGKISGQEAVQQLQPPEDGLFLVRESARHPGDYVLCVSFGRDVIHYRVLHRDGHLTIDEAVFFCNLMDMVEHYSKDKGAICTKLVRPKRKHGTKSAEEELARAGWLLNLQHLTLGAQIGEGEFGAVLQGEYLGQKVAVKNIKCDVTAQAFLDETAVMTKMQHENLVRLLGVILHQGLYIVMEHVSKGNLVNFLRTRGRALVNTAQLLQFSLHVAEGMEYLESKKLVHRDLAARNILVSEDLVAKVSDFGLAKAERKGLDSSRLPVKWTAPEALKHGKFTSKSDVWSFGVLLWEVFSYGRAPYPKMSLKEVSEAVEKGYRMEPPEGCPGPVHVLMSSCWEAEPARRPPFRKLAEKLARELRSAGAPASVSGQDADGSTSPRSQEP
CDK7, sequence (P50613 whole entry): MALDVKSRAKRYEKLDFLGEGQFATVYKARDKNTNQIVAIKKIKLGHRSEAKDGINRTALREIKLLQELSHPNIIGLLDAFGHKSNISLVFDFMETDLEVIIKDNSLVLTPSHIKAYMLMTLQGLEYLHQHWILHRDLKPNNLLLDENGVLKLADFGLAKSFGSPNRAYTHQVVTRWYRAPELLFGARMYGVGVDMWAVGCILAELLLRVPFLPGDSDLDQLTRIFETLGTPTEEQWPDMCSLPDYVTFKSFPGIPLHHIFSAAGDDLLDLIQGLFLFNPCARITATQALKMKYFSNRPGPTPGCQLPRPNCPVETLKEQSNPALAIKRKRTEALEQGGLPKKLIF
T5 sequence (Q16659 whole entry): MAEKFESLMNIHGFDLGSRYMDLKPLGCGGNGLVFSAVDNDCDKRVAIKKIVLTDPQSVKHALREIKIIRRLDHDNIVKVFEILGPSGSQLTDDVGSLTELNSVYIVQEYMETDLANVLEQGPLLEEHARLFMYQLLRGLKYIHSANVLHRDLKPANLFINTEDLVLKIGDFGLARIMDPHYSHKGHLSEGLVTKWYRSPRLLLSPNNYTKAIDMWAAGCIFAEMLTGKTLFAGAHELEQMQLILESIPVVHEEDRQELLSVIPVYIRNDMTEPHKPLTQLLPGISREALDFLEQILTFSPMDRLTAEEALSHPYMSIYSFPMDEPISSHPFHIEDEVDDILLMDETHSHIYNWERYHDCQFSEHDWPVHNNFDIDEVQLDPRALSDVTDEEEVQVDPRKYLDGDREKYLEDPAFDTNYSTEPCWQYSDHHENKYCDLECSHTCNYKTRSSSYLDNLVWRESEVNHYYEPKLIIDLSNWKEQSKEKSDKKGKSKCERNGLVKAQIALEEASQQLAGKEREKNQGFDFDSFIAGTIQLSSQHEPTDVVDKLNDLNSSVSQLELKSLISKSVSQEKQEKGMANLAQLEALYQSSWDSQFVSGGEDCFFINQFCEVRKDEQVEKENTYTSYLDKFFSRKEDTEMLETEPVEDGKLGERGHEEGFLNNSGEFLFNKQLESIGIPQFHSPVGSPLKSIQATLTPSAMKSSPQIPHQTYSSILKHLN

## C=CC(=O)Nc1cc(-n2c(=O)ccc3cnc4ccc(-n5cccn5)cc4c32)ccc1C [CHMFL-BTK-11]
[1]
  remaining binding at 1 µM: 100%
[2]
  remaining binding at 1 µM: 100%
[3]
  remaining binding at 1 µM: 89%
[4]
  remaining binding at 1 µM: 65%
[5]
  remaining binding at 1 µM: 96%
[6]
  remaining binding at 1 µM: 65%
[7]
  remaining binding at 1 µM: 97%
[8]
  remaining binding at 1 µM: 58%
[9]
  remaining binding at 1 µM: 100%
[10]
  remaining binding at 1 µM: 100%
[11]
  remaining binding at 1 µM: 88%
[12]
  remaining binding at 1 µM: 100%
[13]
  remaining binding at 1 µM: 96%
[14]
  remaining binding at 1 µM: 100%
[15]
  remaining binding at 1 µM: 91%
[16]
  remaining binding at 1 µM: 100%
[17]
  remaining binding at 1 µM: 77%
[18]
  remaining binding at 1 µM: 62%
[19]
  remaining binding at 1 µM: 82%
[20]
  remaining binding at 1 µM: 97%
[21]
  remaining binding at 1 µM: 100%
[22]
  remaining binding at 1 µM: 100%
[23]
  remaining binding at 1 µM: 100%
[24]
  remaining binding at 1 µM: 100%
[25]
  remaining binding at 1 µM: 91%

— publication PMC5428509, “Irreversible inhibition of BTK kinase by a novel highly selective inhibitor CHMFL-BTK-11 suppresses inflammatory response in rheumatoid arthritis model” (Scientific Reports, 2017)
